The values that follow come from ChEMBL document CHEMBL1123177, “1H NMR configurational correlation for retro-inverso dipeptides: application to the determination of the absolute configuration of "enkephalinase" inhibitors. Relationships between stereochemistry and enzyme recognition” (J Med Chem, 1986).

The experiment has as its target Neprilysin (Oryctolagus cuniculus) (UniProt P08049). Nature of the experiment: Concentration for 50% inhibition of activity of rabbit kidney enkephalinase.

Neprilysin (Oryctolagus cuniculus), sequence (P08049 whole entry, looked up): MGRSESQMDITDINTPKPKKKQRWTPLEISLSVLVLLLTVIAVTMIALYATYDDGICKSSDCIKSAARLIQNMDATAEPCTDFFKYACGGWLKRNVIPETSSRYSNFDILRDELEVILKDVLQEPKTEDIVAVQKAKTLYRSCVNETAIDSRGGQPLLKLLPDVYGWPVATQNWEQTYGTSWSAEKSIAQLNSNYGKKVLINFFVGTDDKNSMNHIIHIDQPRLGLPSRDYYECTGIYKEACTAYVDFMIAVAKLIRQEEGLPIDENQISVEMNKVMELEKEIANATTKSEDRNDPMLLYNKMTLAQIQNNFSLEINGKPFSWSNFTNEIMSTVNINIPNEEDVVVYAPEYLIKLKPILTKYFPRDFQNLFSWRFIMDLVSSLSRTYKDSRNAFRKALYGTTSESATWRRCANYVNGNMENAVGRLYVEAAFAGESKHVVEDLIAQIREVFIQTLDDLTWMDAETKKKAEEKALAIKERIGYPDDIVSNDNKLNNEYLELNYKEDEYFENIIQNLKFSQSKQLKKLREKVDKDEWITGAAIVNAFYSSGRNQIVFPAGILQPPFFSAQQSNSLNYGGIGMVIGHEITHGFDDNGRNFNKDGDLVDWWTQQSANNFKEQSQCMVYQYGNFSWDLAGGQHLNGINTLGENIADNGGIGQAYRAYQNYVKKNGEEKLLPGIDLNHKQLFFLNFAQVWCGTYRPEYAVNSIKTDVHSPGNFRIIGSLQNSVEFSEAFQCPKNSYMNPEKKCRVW

The IC50 is the concentration at which inhibition is half-maximal. A lower IC50 goes with greater potency in that assay. For the molecule `CC(C)C[C@H](C(=O)O)C(=O)N[C@H](CS)Cc1ccccc1`, half-maximal inhibition (IC50) was put at 0.75 nM.
Next, `C[C@H](C(=O)O)C(=O)N[C@H](CS)Cc1ccccc1`: 0.65 nM; `CC(C)C[C@@H](C(=O)O)C(=O)N[C@H](CS)Cc1ccccc1` (racemic): 1.5 nM.
Next, `C[C@@H](C(=O)O)C(=O)N[C@H](CS)Cc1ccccc1` (racemic): 0.54 nM; `O=C(O)CC(=O)NC(CS)Cc1ccccc1` (single isomer, unassigned; 7a): 2.3 nM; `O=C(O)CC(=O)NC(CS)Cc1ccccc1` (single isomer, unassigned; 7b): 210 nM.
